From patent US7018796B2, “Preincubation assay methods” (Shionogi & Co., Ltd., priority 2000, dated 2006)
“Also recorded” adds a separate entry of the source.

Legend:
[1] = biological target: T1, HCV RNA-dependent RNA polymerase (Hepatitis C virus genotype 1a, UniProt P27958); test: Pre-incubation assay method with 3H-UTP (Example 1); type: biochemical
T1 construct: HCV RNA-dependent RNA polymerase is encoded in the NS5B (nonstructural protein 5B) region of HCV; made in house; host or cells: insect cells or E. coli
Description: A HCV RNA-dependent RNA polymerase, template RNA, primer RNA and Mg ion (Mg^2+) are pre-incubated at approximately 25° C. for approximately 1 hour. After that, substrate RNA and a test substance are added to start an enzyme reaction and measure an enzyme activity. IC50 value can be calculated by comparing with an enzyme activity measured in the absence of a test substance as well as the above prior method. An inhibitor can be selected by comparing IC50. An example of a procedure of this method is shown in the later described Example 1.
(§1) A cDNA encoding HCV RNA-dependent RNA polymerase was made by use of HCV positive human plasma and HCV RNA-dependent RNA polymerase was expressed using the insect cells or the E. coli. HCV RNA-dependent RNA polymerase in the cell extract was purified by use of an anion exchange chromatography, a heparin affinity chromatography, a polyU affinity chromatography, a cation exchange chromatography and gel filtration chromatography. The purification was performed at 4° C. and Tris buffer (pH 7.5) containing ethylenediaminetetraacetic acid (1 mM), dithiothreitol (10 mM) and glycerol (20%) was used. The enzyme purified was stored at 4° C. until use for the assays.
• 1) The buffer I ^1) (10.5 μl) containing Tris-HCl (100 mM, pH 7.5), MgCl2 (25 mM), dithiothreitol (5 mM), KCl (125 mM) and ethylenediaminetetraacetic acid (5 mM) was transferred to a polypropylene tube and then poly(A)^2) solution (100 μg/ml, 10.5 μl), oligo(U)12 ^3) solution (1 μg/ml, 10.5 μl) and water (8 μl) were added into the tube and mixed. • 2) Next, HCV RNA-dependent RNA polymerase (10.5 μl) was added into the tube and pre-incubated at 25° C. for […]. • 3) The enzyme solution pre-incubated (50 μl) was added to a test compound (5.26 μl/well) dissolved with dimethyl sulfoxide or water in a well of a 96-wells microtiter plate. • 4) Additionally, the buffer II (10.6 μl) containing Tris-HCl (100 mM, pH 7.5), MgCl2 (25 mM), dithiothreitol (5 mM), KCl (125 mM), ethylenediaminetetraacetic acid (5 mM) and UTP • 4) (2.1 μM, 1 μCi ^3H-UTP), was mixed with water (39.4 μl). The mixture (50 μl) was added into the well and mix, and then the enzyme reaction was performed at 25° C. for 30 min. • 5) After enzyme reaction for 30 min, the enzyme reaction was stopped by adding disodium ethylenediaminetetraacetic acid (50 mM, 50 μl). • 6) By use of the cell-harvester, all volume of the enzyme reaction sample was transferred onto a filtermat bound with diethylaminoethyl base (referred to as DEAE-filtermat) and washed twice for 10 sec with sodium phosphate buffer (0.25 M, pH 7.0) and once for 10 sec with de-ionized water. • 7) The DEAE-filtermat was dried at 95° C. for 15 min and transferred into a sample bag with liquid scintillater (10 ml), and then a sample bag was sealed. • 8) The radio activity was measured by a scintillation counter. • 9) The inhibitory rate was calculated from the radioactivity measured (ccpm) as follows. [formula]
The concentration of compound at 50% inhibition (IC50 value) was calculated from the compound concentration used and the inhibitory rate calculated.
When use of a compound at a μg/ml results in A % inhibition and use of a compound at β μg/ml results in B % inhibition on condition of A≧50>B the IC50 value is obtained by the calculation as follows. IC50 (μg/ml)=10^[(50−B)/(A−B)×(log^α^−log^β^)+log^β^]

[2] = biological target: T1, HCV RNA-dependent RNA polymerase; test: Prior assay method without pre-incubation, 3H-UTP (Reference 1); type: biochemical; conditions: no pre-incubation
From the text: A HCV RNA-dependent RNA polymerase, template RNA, primer RNA, substrate RNA, Mg ion (Mg^2+) and a test substance are mixed at the same time to start an enzyme reaction and measure an enzyme activity. It can be known whether a test substance activates or inhibits an activity of a HCV RNA-dependent RNA polymerase by comparing the above value of an enzyme activity with that measured in the absence of a test substance. IC50 value can be used, which is a concentration of a test substance able to inhibit 50% of an enzyme activity. For example, one of prior methods can be carried out in accordance with the later described Reference 1.
as §1
The prior assay method using HCV RNA-dependent RNA polymerase • 1) The buffer I ^1) (10.5 μl) containing Tris-HCl (100 mM, pH 7.5), MgCl2 (25 mM), dithiothreitol (5 mM), KCl (125 mM) and ethylenediaminetetraacetic acid (5 mM) was transferred to a polypropylene tube and then poly(A)^2) solution (100 μg/ml, 10.5 μl), oligo(U)12 ^3) solution (1 μg/ml, 10.5 μl) and water (8 μl) were added into the tube. After mixing, the tube was cooled on ice. • 2) Next, HCV RNA-dependent RNA polymerase (10.5 μl) cooled on ice was added into the tube and mixed. • 3) The mixture cooled (50 μl) was added to a test compound (5.26 μl/well) dissolved with dimethyl sulfoxide or water in a well of a 96-wells microtiter plate. • 4) Additionally, the buffer II (10.6 μl) containing Tris-HCl (100 mM, pH 7.5), MgCl2 (25 mM), dithiothreitol (5 mM), KCl (125 mM), ethylenediaminetetraacetic acid (5 mM) and UTP ^4) (2.1 μM, 1 μCi ^3H-UTP), was mixed with water (39.4 μl). The mixture (50 μl) was added into the well and mix, and then the enzyme reaction was performed at 25° C. for 30 min. • 5) After enzyme reaction for 30 min, the enzyme reaction was stopped by adding disodium ethylenediaminetetraacetic acid (50 mM, 50 μl). • 6) By use of the cell-harvester, all volume of the enzyme reaction sample which was described in 5) was transferred onto a DEAE-filtermat and washed twice for 10 see with sodium phosphate buffer (0.25 M, pH 7.0) and once for 10 sec with de-ionized water. • 7) The DEAE-filtermat was dried at 95° C. for 15 min and transferred into a sample bag with liquid scintillater (10 ml), and then a sample bag was sealed. • 8) The radio activity was measured by a scintillation counter. • 9) The inhibitory rate was calculated from the radioactivity measured (ccpm) as follows. [formula]

[3] = with pre-incubation, I-1 0.5 μg/ml, 3′-dUTP 0.7 μM, A 100 μg/ml, B 50 μg/ml, C 25 μg/ml
[4] = prior method, I-1 0.5 μg/ml, 3′-dUTP 0.7 μM, A 100 μg/ml, B 50 μg/ml, C 25 μg/ml

T1 sequence (P27958 2421-3011): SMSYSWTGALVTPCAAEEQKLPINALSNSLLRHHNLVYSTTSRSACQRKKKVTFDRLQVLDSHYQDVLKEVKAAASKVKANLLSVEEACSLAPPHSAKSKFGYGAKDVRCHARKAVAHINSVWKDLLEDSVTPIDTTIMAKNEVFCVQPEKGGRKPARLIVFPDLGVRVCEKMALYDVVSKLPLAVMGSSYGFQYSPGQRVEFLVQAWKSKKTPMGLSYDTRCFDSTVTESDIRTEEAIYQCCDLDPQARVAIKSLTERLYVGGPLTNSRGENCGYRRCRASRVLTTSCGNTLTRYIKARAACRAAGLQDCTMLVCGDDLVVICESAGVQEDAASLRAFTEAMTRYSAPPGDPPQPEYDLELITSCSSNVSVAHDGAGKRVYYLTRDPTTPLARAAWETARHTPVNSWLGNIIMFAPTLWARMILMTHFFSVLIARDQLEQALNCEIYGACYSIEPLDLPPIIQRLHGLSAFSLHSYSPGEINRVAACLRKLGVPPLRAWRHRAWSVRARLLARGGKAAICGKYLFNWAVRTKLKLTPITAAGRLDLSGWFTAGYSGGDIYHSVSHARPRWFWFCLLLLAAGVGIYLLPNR

SMILES: O=c1ccn([C@@H]2O[C@H](COP(=O)(O)OP(=O)(O)OP(=O)(O)O)C[C@H]2O)c(=O)[nH]1 [3′-dUTP, 3′-deoxyuridine triphosphate]
- Inhibitory rate (Table 2) [1, 3]: 79%
- Enzyme inhibition rate in a pre-incubation assay method (FIG. 5) ([1]; with pre-incubation, same concentrations as): does not change
- Inhibitory rate (Table 3) [2, 4]: 68%

SMILES: Cc1oc(-c2ccccc2)nc1CCOc1ccc(C=C2C(=O)NC(=O)NC2=O)cc1 [Compound A]
- Judgement in the pre-incubation method (positive / negative) ([1]; with pre-incubation): negative
- Inhibitory rate (Table 2) [1, 3]: 19%
- Judgement in the prior method (positive / negative) [2]: positive data
- Inhibitory rate (Table 3) [2, 4]: 50%

SMILES: O=C1NC(=O)C(=Cc2ccc(OCCc3cccc4ccccc34)cc2)C(=O)N1 [Compound B]
- Judgement in the pre-incubation method (positive / negative) ([1]; with pre-incubation): negative
- Inhibitory rate (Table 2) [1, 3]: 1%
- Judgement in the prior method (positive / negative) [2]: positive data
- Inhibitory rate (Table 3) [2, 4]: 63%

SMILES: CCCCC1=N/C(=C\c2ccccc2OCC(=O)O)C(=O)N1Cc1ccc(-c2ccccc2-c2nnn[nH]2)cc1 [Compound C]
- Judgement in the pre-incubation method (positive / negative) ([1]; with pre-incubation): negative result
- Inhibitory rate (Table 2) [1, 3]: 2%
- Judgement in the prior method (positive / negative) [2]: positive data; also recorded: positive result
- Inhibitory rate (Table 3) [2, 4]: 67%

SMILES: O=C(O)/C(O)=C/C(=O)c1cccc(O)c1 [Compound I-1]
- inhibition at 100 µg/mL ([1]; 100 μg/ml, pre-incubation 25° C. 60 min, method of Example 1, read-out: Inhibition rate at a concentration of 100 μg/ml): > 99%
- IC50 ([1]; pre-incubation 25° C. 60 min, method of Example 1): 1.92 µM
- Judgement in the pre-incubation method (positive / negative) ([1]; with pre-incubation): positive result
- inhibition at 0.5 µg/mL ([1]; with pre-incubation, I-1 0.5 μg/ml, 3′-dUTP 0.7 μM, A 100 μg/ml, B 50 μg/ml, C 25 μg/ml, read-out: Inhibitory rate (Table 2)): 62%
- inhibition at 0.5 µg/mL ([2]; prior method, I-1 0.5 μg/ml, 3′-dUTP 0.7 μM, A 100 μg/ml, B 50 μg/ml, C 25 μg/ml, read-out: Inhibitory rate (Table 3)): 62%
